Assay [1] can be described thus: Evaluation of taste profile compared to reference sugar solutions by panel (Example 3 method). Format: in vivo, human. The conditions noted are these: inclusion of thaumatin. On the procedure:
I. The components where mixed and then dissolved in aqueous citric acid (pH 3.8) with ultrasound at room temperature and left to equilibrate for 30 minutes.
The sample solutions were evaluated by 8 panelists that have been previously qualified for their taste acuity. Samples coded with triple digit numbers were given to the panelist randomly. Panelists tasted the samples randomly. After tasting a sample, every panelist was required to rinse their mouth with water and rest for 60 seconds. For the sweetness evaluation of each sample, the sample was tested in pairs with several sugar solutions of given sweetness, such as 5%, 6%, 7%, 8%, 9%, or 10% as standard reference samples. The sweetness of each sample was compared with those of the reference sugar solutions, and the sweetness was evaluated and recorded according to the judgment that the sweetness of the sample was similar to a specific sugar solution or between specific sugar solutions. The results were recorded as the mean value of the results provided by the panels.
For evaluation of taste profile, the samples were tested and were compared to reference sugar solutions. Panelists judged if the taste profile of sample solutions were similar to that of sugar.

Assay [2] is described as follows: Evaluation of the sweetness detection threshold (8 panelists rate sweet / not sweet). Format: in vivo, human. The conditions noted are these: at a 1 ppm level. From the text: The phrase “sweetness detection threshold” refers to the minimum concentration at which panelists consisting of 8 persons are able to detect sweetness in a composition, liquid or solid. This is further defined as provided in the Examples herein.
Threshold of sweetness refers to a concentration of a material that below a concentration where sweetness can be detected may still impart a flavor to the consumable (including water). When half of a trained panel of testers determines something is “sweet” at a given concentration, then the sample meets the threshold. When less than half of a panel of testers cannot discern sweetness at a given concentration, then concentrations of the substance below the sweetness level are considered a flavoring.
To evaluate the sweetness potency of various concentrations of GMG or MGV in aqueous solutions, aqueous solutions of GMG and MGV at various concentrations were prepared and were evaluated at room temperature. The sample solutions were evaluated by 8 panelists that were previously qualified for their taste acuity. Samples coded with triple digit numbers were given to a panelist randomly. Panelists tasted the samples randomly. After tasting a sample, every panelist was required to wash their mouth with water and rest for 60 seconds. Panelists gave ratings of “sweet” or “not sweet” to each sample.

For assay [3] the following is noted: pure thaumatin; cited from earlier work.

As for thaumatin, in assay [1], the “taste profile of MGV” value is “improved”. Further, the “sweetness imparted to a composition” value in assay [2] is given as “no sweetness”. Also, the sweetness threshold in assay [3] was 7 ppm.

The values above are taken from patent publication US11766060B2, “Compositions comprising mogrosides, steviol glycosides and glycosylated derivatives thereof and methods of enhancing the mouthfeel or sweetness of consumables” (Sweet Green Fields, LLC, priority 2016, dated 2023).
